The record followed here is ChEMBL document CHEMBL3414499, “Characterization of two distinct structural classes of selective aldehyde dehydrogenase 1A1 inhibitors” (J Med Chem, 2015).

Assay [1] deals with T1, Retinaldehyde dehydrogenase 3 (Homo sapiens) (UniProt P47895).
T1 sequence (whole entry): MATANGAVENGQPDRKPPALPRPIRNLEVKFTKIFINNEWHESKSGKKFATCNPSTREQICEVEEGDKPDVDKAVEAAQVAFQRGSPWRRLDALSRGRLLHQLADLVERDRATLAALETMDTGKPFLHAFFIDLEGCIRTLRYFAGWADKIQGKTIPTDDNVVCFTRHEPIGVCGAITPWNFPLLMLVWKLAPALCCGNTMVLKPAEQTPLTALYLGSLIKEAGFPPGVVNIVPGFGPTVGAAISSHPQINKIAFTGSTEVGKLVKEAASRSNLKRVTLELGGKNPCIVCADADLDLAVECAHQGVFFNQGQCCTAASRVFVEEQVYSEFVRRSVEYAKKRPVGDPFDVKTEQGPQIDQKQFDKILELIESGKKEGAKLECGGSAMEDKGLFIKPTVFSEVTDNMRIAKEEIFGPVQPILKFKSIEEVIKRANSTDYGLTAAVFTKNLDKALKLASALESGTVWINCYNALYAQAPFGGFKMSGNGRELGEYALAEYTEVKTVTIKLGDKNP
Put plainly: Effect on recombinant human ALDH1A3 using propionaldehyde as substrate at 20 uM preincubated for 2 mins with NAD+ followed by substrate addition by UV-Vis spectrophotometric analysis.

In assay [2] the target is T2, Aldehyde dehydrogenase, mitochondrial (Homo sapiens) (UniProt P05091).
T2 sequence (whole entry): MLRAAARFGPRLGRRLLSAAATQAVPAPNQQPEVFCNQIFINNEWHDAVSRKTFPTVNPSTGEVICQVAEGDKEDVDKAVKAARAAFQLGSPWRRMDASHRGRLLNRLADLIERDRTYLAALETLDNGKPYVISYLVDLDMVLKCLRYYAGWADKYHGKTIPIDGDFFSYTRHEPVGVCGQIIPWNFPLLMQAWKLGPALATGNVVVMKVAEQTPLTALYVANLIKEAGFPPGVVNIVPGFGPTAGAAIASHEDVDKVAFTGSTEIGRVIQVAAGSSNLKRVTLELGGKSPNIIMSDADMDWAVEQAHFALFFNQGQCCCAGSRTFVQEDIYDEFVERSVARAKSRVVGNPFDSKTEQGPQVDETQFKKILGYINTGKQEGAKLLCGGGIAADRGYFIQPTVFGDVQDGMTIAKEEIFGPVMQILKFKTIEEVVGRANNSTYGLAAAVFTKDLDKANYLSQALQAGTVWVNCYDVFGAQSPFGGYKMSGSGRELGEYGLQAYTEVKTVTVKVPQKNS
Put plainly: Effect on recombinant human ALDH2 using propionaldehyde as substrate at 20 uM preincubated for 2 mins with NAD+ followed by substrate addition by UV-Vis spectrophotometric analysis.

The target in assay [3] is T3, Retinal dehydrogenase 2 (Homo sapiens) (UniProt O94788).
T3 sequence (whole entry): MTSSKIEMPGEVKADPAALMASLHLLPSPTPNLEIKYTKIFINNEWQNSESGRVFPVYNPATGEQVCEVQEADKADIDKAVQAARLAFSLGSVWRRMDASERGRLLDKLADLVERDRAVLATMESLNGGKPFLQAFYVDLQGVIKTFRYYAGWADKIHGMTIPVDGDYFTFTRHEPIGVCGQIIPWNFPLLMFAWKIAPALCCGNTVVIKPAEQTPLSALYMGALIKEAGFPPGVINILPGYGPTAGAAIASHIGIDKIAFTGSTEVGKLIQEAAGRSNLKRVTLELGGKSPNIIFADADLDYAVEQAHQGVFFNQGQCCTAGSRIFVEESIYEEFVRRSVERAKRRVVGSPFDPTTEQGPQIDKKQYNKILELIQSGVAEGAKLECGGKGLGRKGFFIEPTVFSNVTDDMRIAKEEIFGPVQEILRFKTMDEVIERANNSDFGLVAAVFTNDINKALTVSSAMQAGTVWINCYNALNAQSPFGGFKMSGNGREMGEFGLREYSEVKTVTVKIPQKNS
Description: Effect on recombinant human ALDH1A2 using propionaldehyde as substrate at 20 uM preincubated for 2 mins with NAD+ followed by substrate addition by UV-Vis spectrophotometric analysis.

Assay [4] deals with T4, Succinate-semialdehyde dehydrogenase, mitochondrial (Homo sapiens) (UniProt P51649).
T4 sequence (whole entry): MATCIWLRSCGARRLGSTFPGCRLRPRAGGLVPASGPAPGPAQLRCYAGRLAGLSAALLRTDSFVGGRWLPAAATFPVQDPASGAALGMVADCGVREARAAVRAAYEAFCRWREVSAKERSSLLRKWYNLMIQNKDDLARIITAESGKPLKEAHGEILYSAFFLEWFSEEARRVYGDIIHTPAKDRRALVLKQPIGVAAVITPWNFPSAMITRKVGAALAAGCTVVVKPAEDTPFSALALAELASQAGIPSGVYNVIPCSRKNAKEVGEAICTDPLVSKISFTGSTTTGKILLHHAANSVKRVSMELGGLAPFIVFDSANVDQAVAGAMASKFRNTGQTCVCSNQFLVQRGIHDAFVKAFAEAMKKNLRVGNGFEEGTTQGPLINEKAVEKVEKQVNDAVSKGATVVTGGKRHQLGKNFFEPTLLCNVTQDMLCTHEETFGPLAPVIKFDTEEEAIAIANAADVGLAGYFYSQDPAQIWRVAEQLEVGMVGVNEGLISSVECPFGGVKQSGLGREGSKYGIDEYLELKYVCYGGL
Description: Effect on human ALDH5A1 at 20 uM preincubated for 2 mins with NAD+ followed by aldehyde substrate addition.

The target in assay [5] is T5, Aldehyde dehydrogenase, dimeric NADP-preferring (Homo sapiens, UniProt P30838).
T5 sequence (P30838 whole entry): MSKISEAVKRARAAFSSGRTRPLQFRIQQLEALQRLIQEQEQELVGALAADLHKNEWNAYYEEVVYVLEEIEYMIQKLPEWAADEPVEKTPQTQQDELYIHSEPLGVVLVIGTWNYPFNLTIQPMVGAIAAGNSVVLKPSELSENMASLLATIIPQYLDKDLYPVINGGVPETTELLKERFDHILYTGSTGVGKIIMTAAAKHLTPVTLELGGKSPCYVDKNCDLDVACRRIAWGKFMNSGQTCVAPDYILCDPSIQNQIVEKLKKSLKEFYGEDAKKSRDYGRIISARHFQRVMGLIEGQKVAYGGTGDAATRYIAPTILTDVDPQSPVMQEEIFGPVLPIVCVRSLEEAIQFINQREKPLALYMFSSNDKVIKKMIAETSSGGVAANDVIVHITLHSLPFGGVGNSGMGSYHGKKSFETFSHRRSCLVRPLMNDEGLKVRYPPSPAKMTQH
Put plainly: Inhibition of recombinant human ALDH3A1 using benzaldehyde as substrate preincubated for 2 mins with NAD+ followed by substrate addition by UV-Vis spectrophotometric analysis.

Activity calls are given as the source filed them. The calls are words filed in the database; no cut-off is given here. Some results are limits rather than exact numbers.

In the case of `CC(C)CCn1c(CN2CCN(C(=O)c3ccco3)CC2)nc2c1c(=O)n(C)c(=O)n2C`, the outcome in assay [1], in assay [2], in assay [3] and in assay [4] was inactive.

For `Cn1c(=O)c2c(nc(SCC(N)=O)n2Cc2ccccc2F)n(C)c1=O`, the IC50 in assay [5] is > 100 µM.

In general, IC50 refers to the point on the concentration scale where inhibition reaches its midpoint.
